Laboratory results as given in ChEMBL document CHEMBL5360646, “Optimization of M3 Antagonist-PDE4 Inhibitor (MAPI) Dual Pharmacology Molecules for the Treatment of COPD” (J Med Chem, 2023).
In brackets after ≈: the same amount, converted by molar mass. Activity calls are given as the source filed them. The rule behind the calls is not given here.

How the values were obtained:
Rattus norvegicus [1] = experiment: Anti-inflammatory activity against OVA-sensitized Brown-Norway rat airway inflammation model assessed as inhibition of OVA-induced eosinophil influx at 10 nmol/kg,IT(Intratracheal) pretreated 24 hrs prior to OVA challenge and measured after 48 hrs by automated cell counter analysis; assay type: functional; design: scale not given: the % may be the effect or the level left
Rattus norvegicus [2] = experiment: Anti-inflammatory activity against OVA-sensitized Brown-Norway rat airway inflammation model assessed as inhibition of OVA-induced eosinophil influx at 100 nmol/kg,IT(Intratracheal) pretreated 24 hrs prior to OVA challenge and measured after 48 hrs by automated cell counter analysis; assay type: functional; design: scale not given: the % may be the effect or the level left; details: time 72 hrs
Rattus norvegicus [3] = experiment: Anti-inflammatory activity against OVA-sensitized Brown-Norway rat airway inflammation model assessed as inhibition of OVA-induced eosinophil influx at 1 nmol/kg,IT(Intratracheal) pretreated 2 hrs prior to OVA challenge by automated cell counter analysis; assay type: functional; design: scale not given: the % may be the effect or the level left
Rattus norvegicus [4] = experiment: Anti-bronchospastic activity in carbachol-induced bronchospasm Sprague-Dawley rat model assessed as inhibition of carbachol-induced bronchoconstriction at 30 nmol/kg, IT(Intratracheal) administered 1 hr prior to carbachol challenge; assay type: functional; design: scale not given: the % may be the effect or the level left
Rattus norvegicus [5] = experiment: Anti-inflammatory activity against OVA-sensitized Brown-Norway rat airway inflammation model assessed as inhibition of OVA-induced eosinophil influx at 10 nmol/kg,IT(Intratracheal) pretreated 2 hrs prior to OVA challenge by automated cell counter analysis; assay type: functional; design: scale not given: the % may be the effect or the level left
[6] = Solubility of compound simulated lung fluid at 1 mg/ml and measured at 0 hr by UPLC-MS analysis; assay type: physicochemical
[7] = AUClast in Sprague-Dawley rat plasma at 10 ug,IT(Intratracheal) by HPLC-MS/MS analysis; assay type: ADME, cell-free; design: dose 10 µg, route it(Intratracheal); details: inhaled or intranasal
[8] = molecular target: cGMP-specific 3',5'-cyclic phosphodiesterase (Homo sapiens) (UniProt O76074); experiment: Inhibition of human recombinant PDE5 catalytic domain expressed in baculovirus expression system using […] as substrate at 1 uM by radiometric assay
Rattus norvegicus [9] = experiment: Anti-bronchospastic activity in carbachol-induced bronchospasm Sprague-Dawley rat model assessed as inhibition of carbachol-induced bronchoconstriction at 30 nmol/kg, IT(Intratracheal) administered 16 hr prior to carbachol challenge; assay type: functional; design: scale not given: the % may be the effect or the level left
[10] = molecular target: 3',5'-cyclic-AMP phosphodiesterase 4D (Homo sapiens, UniProt Q08499); experiment: Inhibition of human recombinant PDE4D3 expressed in baculovirus expression system using cAMP as substrate by radiometric assay
3',5'-cyclic-AMP phosphodiesterase 4D, sequence (Q08499 whole entry): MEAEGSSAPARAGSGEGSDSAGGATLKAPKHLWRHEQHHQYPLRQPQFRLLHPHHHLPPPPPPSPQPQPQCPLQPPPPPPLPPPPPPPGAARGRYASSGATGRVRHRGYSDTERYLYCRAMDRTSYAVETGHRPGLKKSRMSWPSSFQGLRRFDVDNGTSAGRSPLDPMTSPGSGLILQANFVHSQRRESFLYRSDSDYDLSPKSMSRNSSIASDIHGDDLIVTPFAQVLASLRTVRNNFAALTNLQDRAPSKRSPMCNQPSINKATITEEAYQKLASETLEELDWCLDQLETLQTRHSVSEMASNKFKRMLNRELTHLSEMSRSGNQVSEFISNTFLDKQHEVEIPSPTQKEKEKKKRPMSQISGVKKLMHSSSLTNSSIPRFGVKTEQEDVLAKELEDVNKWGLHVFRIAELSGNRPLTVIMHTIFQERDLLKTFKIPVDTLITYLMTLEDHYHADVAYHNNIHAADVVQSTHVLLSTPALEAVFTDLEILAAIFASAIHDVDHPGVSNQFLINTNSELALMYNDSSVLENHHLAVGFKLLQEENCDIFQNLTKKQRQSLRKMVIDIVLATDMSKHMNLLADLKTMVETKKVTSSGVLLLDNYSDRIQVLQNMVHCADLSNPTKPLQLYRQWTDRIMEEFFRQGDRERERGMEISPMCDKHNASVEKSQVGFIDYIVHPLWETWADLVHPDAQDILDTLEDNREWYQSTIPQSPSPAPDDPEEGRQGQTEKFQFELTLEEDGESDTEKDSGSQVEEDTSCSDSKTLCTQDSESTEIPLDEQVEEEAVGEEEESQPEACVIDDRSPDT

[11] = molecular target: 3',5'-cyclic-AMP phosphodiesterase 4C (Homo sapiens, UniProt Q08493); experiment: Inhibition of human recombinant PDE4C2 expressed in baculovirus expression system using cAMP as substrate by radiometric assay
3',5'-cyclic-AMP phosphodiesterase 4C, sequence (Q08493 whole entry): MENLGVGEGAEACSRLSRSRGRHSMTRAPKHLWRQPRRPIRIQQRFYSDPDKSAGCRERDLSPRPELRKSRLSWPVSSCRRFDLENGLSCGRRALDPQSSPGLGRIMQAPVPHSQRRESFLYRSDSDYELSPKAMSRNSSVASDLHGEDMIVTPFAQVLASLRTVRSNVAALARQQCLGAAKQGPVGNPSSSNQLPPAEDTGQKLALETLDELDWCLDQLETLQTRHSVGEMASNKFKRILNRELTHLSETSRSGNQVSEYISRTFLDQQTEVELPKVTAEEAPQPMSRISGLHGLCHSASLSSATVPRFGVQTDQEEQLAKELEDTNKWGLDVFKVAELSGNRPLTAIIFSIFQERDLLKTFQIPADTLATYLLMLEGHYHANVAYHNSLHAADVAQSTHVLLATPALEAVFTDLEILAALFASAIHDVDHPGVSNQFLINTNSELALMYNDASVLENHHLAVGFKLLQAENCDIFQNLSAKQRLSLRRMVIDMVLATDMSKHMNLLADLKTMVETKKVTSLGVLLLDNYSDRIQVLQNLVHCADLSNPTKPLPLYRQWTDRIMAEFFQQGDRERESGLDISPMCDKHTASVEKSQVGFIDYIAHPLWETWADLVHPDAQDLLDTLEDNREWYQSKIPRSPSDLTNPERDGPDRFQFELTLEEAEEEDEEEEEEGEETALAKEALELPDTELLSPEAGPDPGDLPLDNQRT

[12] = molecular target: T1, 3',5'-cyclic-AMP phosphodiesterase 4B (Homo sapiens, UniProt Q07343); experiment: Inhibition of human recombinant PDE4B2 expressed in baculovirus expression system using cAMP as substrate by radiometric assay
T1 sequence (Q07343 whole entry): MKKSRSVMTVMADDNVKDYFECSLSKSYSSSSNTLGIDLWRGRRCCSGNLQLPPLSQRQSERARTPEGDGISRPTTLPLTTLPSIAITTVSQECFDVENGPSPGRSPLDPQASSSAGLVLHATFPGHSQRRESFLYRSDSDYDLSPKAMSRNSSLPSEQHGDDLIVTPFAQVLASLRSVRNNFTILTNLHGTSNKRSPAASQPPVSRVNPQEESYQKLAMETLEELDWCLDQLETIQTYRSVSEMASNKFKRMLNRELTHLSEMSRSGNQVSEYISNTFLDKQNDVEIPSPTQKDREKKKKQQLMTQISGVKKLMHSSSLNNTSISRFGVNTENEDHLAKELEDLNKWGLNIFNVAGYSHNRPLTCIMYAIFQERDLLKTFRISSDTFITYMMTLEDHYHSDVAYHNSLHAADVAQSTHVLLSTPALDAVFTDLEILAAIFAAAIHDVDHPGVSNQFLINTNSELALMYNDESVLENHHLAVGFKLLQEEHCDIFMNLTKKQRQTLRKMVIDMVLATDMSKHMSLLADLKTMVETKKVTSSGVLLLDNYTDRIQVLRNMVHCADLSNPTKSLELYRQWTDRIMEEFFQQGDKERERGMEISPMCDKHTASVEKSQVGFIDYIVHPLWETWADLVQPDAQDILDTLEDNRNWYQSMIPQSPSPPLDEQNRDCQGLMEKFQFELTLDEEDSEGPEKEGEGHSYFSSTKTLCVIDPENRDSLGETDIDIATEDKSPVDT

[13] = Toxicity in pilocarpine hydrochloride induced salivation Sprague-Dawley rat model assessed as inhibition of salivary secretion at 1 mM,INH for 10 mins; details: in vivo, inhaled_or_intranasal, 1000 µM
[14] = Half life in Sprague-Dawley rat lung at 10 ug,IT(Intratracheal) by HPLC-MS/MS analysis; assay type: ADME, tissue-based; details: inhaled or intranasal, dose 10 µg
[15] = molecular target: 3',5'-cyclic-AMP phosphodiesterase 4A (Homo sapiens, UniProt P27815); experiment: Inhibition of human recombinant PDE4A4 expressed in baculovirus expression system using cAMP as substrate by radiometric assay
[16] = molecular target: Muscarinic acetylcholine receptor M3 (Homo sapiens, UniProt P20309); experiment: Displacement of [3H]N-methylscopolamine chloride from human muscarinic M3 receptor incubated for 2 hrs by radioligand binding assay
Muscarinic acetylcholine receptor M3, sequence (P20309 whole entry): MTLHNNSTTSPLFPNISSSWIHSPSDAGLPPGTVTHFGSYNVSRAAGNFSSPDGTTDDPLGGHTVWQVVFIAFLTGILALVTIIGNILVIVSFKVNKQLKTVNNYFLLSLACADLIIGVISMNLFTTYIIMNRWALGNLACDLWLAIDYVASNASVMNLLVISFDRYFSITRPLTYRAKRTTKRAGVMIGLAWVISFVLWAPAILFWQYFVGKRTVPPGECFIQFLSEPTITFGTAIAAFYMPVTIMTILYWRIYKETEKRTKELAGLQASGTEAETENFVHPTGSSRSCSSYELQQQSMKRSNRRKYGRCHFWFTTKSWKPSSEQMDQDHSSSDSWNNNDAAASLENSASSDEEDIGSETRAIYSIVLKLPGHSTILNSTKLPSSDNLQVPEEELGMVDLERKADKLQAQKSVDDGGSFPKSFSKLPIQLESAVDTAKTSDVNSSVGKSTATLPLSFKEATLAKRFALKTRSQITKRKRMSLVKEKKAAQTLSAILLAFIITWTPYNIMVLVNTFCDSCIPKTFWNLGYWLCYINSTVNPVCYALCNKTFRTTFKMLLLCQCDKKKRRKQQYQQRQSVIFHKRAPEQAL

Rattus norvegicus [17] = experiment: Anti-inflammatory activity against OVA-sensitized Brown-Norway rat airway inflammation model assessed as inhibition of OVA-induced eosinophil influx at 1000 nmol/kg,IT(Intratracheal) pretreated 24 hrs prior to OVA challenge and measured after 48 hrs by automated cell counter analysis; assay type: functional; design: scale not given: the % may be the effect or the level left; details: time 72 hrs
[18] = Cmax in Sprague-Dawley rat lung at 10 ug,IT(Intratracheal) by HPLC-MS/MS analysis; assay type: ADME, tissue-based; design: dose 10 µg, route it(Intratracheal); details: inhaled or intranasal
[19] = Toxicity in ferret assessed as appearance of nausea-like behavior at 10 nmol/kg,po and measured for 4 hrs by behavioral analysis; design: species or system Mustela putorius furo; details: in vivo
Rattus norvegicus [20] = experiment: Anti-inflammatory activity against OVA-sensitized Brown-Norway rat airway inflammation model assessed as inhibition of OVA-induced eosinophil influx at 100 nmol/kg,IT(Intratracheal) pretreated 2 hrs prior to OVA challenge by automated cell counter analysis; assay type: functional; design: scale not given: the % may be the effect or the level left
[21] = molecular target: T1, 3',5'-cyclic-AMP phosphodiesterase 4B; experiment: Inhibition of human recombinant PDE4B2 expressed in baculovirus expression system using cAMP as substrate incubated for 2 hrs by HTRF assay
[22] = Toxicity in pilocarpine hydrochloride induced salivation Sprague-Dawley rat model assessed as inhibition of salivary secretion at 3 mM,INH for 10 mins; details: in vivo, inhaled_or_intranasal, 10 min, 3000 µM
[23] = molecular target: Dual specificity calcium/calmodulin-dependent 3',5'-cyclic nucleotide phosphodiesterase 1A (Homo sapiens) (UniProt P54750); experiment: Inhibition of human recombinant PDE1A3 expressed in baculovirus expression system using cAMP as substrate at 1 uM by radiometric assay
Dual specificity calcium/calmodulin-dependent 3',5'-cyclic nucleotide phosphodiesterase 1A (Homo sapiens), sequence (P54750 whole entry): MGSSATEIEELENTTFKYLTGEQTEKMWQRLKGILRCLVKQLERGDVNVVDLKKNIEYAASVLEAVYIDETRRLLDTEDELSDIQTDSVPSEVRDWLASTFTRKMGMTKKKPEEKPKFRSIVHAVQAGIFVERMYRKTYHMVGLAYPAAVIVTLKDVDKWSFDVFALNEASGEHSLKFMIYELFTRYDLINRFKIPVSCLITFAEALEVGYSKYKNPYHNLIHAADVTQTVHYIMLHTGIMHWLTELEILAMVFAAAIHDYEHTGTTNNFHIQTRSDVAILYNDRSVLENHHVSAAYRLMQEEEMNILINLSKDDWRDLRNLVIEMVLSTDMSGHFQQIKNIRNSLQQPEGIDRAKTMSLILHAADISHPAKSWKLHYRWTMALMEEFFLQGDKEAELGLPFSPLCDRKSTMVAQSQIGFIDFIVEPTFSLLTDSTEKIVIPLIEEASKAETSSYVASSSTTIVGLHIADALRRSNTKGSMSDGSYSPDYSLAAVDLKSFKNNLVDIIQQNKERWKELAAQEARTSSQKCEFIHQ

[24] = Antiinflammatory activity against LPS-stimulated human PBMC cells assessed reduction in TNFalpha level incubated for 18 hrs by ELISA analysis; assay type: functional, cell-based; details: Homo sapiens, PBMC, 18 h
Rattus norvegicus [25] = experiment: Anti-inflammatory activity against OVA-sensitized Brown-Norway rat airway inflammation model assessed as inhibition of OVA-induced eosinophil influx administered IT(Intratracheal) pretreated 24 hrs prior to OVA challenge and measured after 48 hrs by automated cell counter analysis; assay type: functional; details: time 72 hrs
Rattus norvegicus [26] = experiment: Anti-bronchospastic activity in carbachol-induced bronchospasm Sprague-Dawley rat model assessed as inhibition of carbachol-induced bronchoconstriction administered IT(Intratracheal) for 1 hr prior to carbachol challenge; assay type: functional; details: Rattus norvegicus, Sprague-Dawley, read-out: ED50
[27] = Solubility of compound simulated lung fluid at 1 mg/ml and measured at 2 hr by UPLC-MS analysis; assay type: physicochemical
[28] = molecular target: cGMP-inhibited 3',5'-cyclic phosphodiesterase 3A (Homo sapiens) (UniProt Q14432); experiment: Inhibition of human recombinant PDE3A expressed in baculovirus expression system using cAMP as substrate at 1 uM by radiometric assay
cGMP-inhibited 3',5'-cyclic phosphodiesterase 3A (Homo sapiens), sequence (Q14432 whole entry): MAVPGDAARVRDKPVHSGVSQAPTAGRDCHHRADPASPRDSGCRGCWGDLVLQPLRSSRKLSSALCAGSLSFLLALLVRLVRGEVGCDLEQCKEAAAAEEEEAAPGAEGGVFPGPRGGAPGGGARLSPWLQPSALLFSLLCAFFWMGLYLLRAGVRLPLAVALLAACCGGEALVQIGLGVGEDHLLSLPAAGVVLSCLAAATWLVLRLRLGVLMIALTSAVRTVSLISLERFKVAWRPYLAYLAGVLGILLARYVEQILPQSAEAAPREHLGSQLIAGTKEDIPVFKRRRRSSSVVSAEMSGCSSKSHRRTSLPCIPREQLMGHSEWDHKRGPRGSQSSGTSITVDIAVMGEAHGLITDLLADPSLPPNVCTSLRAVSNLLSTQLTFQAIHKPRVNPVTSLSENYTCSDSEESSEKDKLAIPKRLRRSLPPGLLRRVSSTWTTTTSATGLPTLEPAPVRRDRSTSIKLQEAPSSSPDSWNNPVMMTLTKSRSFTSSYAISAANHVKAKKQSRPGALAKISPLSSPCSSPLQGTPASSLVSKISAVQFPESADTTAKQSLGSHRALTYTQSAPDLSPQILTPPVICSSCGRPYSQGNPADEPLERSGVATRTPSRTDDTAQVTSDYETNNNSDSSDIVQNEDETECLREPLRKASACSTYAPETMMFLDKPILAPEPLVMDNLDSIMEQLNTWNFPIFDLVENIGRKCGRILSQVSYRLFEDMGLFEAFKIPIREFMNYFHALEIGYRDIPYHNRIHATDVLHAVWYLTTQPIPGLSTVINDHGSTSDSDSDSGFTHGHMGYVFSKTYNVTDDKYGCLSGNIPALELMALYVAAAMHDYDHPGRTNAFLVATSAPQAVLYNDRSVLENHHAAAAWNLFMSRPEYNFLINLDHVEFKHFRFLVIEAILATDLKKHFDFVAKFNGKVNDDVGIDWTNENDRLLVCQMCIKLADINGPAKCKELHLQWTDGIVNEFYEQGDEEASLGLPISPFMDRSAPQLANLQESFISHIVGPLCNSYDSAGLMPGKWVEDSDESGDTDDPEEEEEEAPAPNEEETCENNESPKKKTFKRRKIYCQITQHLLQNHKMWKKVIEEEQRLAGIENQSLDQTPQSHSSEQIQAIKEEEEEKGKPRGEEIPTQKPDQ

Rattus norvegicus [29] = experiment: Anti-inflammatory activity against OVA-sensitized Brown-Norway rat airway inflammation model assessed as inhibition of OVA-induced eosinophil influx in BALF at 30 nmol/kg, IT(Intratracheal) pretreated 24 hrs prior to OVA challenge and measured after 48 hrs by automated cell counter analysis; assay type: functional; design: scale not given: the % may be the effect or the level left
[30] = Toxicity in ferret assessed as emetic response at 10 nmol/kg,po and measured for 4 hrs by behavioral analysis; design: species or system Mustela putorius furo; details: in vivo
[31] = Cmax in Sprague-Dawley rat plasma at 10 ug,IT(Intratracheal) by HPLC-MS/MS analysis; assay type: ADME, cell-free; design: dose 10 µg, route it(Intratracheal); details: inhaled or intranasal
[32] = Ratio of ED50 for Anti-inflammatory activity against OVA-sensitized Brown-Norway rat airway inflammation model to ED50 for Anti-bronchospastic activity in carbachol-induced bronchospasm Sprague-Dawley rat model; assay type: functional
[33] = AUC (0 to infinity) in Sprague-Dawley rat lung at 10 ug,IT(Intratracheal) by HPLC-MS/MS analysis; assay type: ADME, tissue-based; design: dose 10 µg, route it(Intratracheal); details: in vivo, inhaled_or_intranasal
[34] = molecular target: T2, Muscarinic acetylcholine receptor M2 (Homo sapiens, UniProt P08172); experiment: Displacement of [3H]N-methylscopolamine chloride from human muscarinic M2 receptor incubated for 2 hrs by radioligand binding assay
T2 sequence (P08172 whole entry): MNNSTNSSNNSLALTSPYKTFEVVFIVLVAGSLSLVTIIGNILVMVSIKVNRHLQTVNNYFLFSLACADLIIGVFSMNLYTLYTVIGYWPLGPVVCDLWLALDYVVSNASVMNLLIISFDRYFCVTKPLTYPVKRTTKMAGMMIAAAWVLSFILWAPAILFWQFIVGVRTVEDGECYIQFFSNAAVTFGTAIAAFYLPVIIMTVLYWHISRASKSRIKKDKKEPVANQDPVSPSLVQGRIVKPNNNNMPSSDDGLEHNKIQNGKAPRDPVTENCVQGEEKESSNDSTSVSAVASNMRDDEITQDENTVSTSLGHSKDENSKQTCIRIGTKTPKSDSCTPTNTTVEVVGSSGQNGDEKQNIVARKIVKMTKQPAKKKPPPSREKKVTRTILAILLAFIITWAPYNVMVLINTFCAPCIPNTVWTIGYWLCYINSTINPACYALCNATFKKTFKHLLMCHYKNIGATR

Trachea = experiment: Bronchoconstriction activity in Sprague-Dawley rat trachea assessed as inhibition of carbachol-induced tracheal contraction; assay type: functional, tissue-based; details: Rattus norvegicus, Sprague-Dawley, Trachea
[35] = Toxicity in ferret assessed as emetic response at 10 nmol/kg, IT(Intratracheal) and measured for 4 hrs by behavioral analysis; design: species or system Mustela putorius furo; details: in vivo, inhaled_or_intranasal
[36] = Toxicity in ferret assessed as appearance of nausea-like behavior at 10 nmol/kg, IT(Intratracheal) and measured for 4 hrs by behavioral analysis; design: species or system Mustela putorius furo; details: in vivo, inhaled_or_intranasal
Rattus norvegicus [37] = experiment: Anti-inflammatory activity against OVA-sensitized Brown-Norway rat airway inflammation model assessed as inhibition of OVA-induced eosinophil influx administered IT(Intratracheal) 2 hrs prior to OVA challenge; assay type: functional

## CCOc1cc([C@H](Cc2c(Cl)c[n+]([O-])cc2Cl)OC(=O)c2ccc(CN[C@@](CO)(C(=O)O[C@H]3CN4CCC3CC4)c3ccccc3)s2)ccc1OC
Rattus norvegicus [1]
  Activity: 45%
Rattus norvegicus [2]
  Activity: 72%
Rattus norvegicus [3]
  Activity: 28%
Rattus norvegicus [4]
  Activity: 80%
Rattus norvegicus [5]
  Activity: 60%
[6]
  solubility at 0 h: 3.3 µg/mL (≈ 4.28 µM)
[7]
  AUC(0-t): 3.7 ng·h/mL
[8]
  inhibition: inactive
Rattus norvegicus [9]
  Activity: 83%
[10]
  IC50: 0.398 nM
[11]
  IC50: 0.0251 nM
[12]
  IC50: 0.0398 nM
[13]
  Activity: Non-Toxic
[14]
  half-life: 4.3 h
[15]
  IC50: 0.0316 nM
[16]
  Ki: 0.631 nM
Rattus norvegicus [17]
  Activity: >100%
[18]
  Cmax: 6270 ng/g
[19]
  Activity: Non-Toxic
Rattus norvegicus [20]
  Activity: 92%
[21]
  IC50: 1 nM
[22]
  Activity: Non-Toxic
[23]
  inhibition: inactive
[24]
  IC50: 0.316 nM
Rattus norvegicus [25]
  ED50: 0.016 µmol/kg
Rattus norvegicus [26]
  ED50: 0.007 µmol/kg
[27]
  solubility at 2 h: 1.6 µg/mL (≈ 2.08 µM)
[28]
  inhibition: inactive
Rattus norvegicus [29]
  Activity: 63%
[30]
  Activity: Non-Toxic
[31]
  Cmax: 2 ng/mL
[32]
  Ratio ED50: 1
[33]
  AUC: 9242 ng·h/g
[34]
  Ki: 10 nM
Trachea
  IC50: 12.6 nM
[35]
  Activity: Non-Toxic
[36]
  Activity: Non-Toxic
Rattus norvegicus [37]
  ED50: 0.007 µmol/kg
